Source: patent publication US8093216B2, “Method of treating cancer by inhibition of p95HER-2 production” (Oregon Health & Science University, priority 1998, dated 2012)
“Also recorded” adds a separate entry of the source.

Columns and labels:
p95HER-2 [1] = assay: p95HER-2 level in a further, unnamed cell line treated with TAPI; type: cell-based
HER-2/neu ECD = assay: Shedding of HER-2/neu ECD into conditioned media, Western blot with anti-neu (N), BT474 cells; type: cell-based, human
Experimental: Cells were treated for 24 hrs in serum-free medium with control vehicle or with 500 nM of the phorbol ester TPA and 50 μM chloroquine. In the top panel (FIG. 4A), 5 ml of conditioned media was concentrated 100 fold, denatured under nonreducing conditions, and aliquots normalized to cell extract protein were analyzed by western blotting with anti-neu (N) monoclonal antibody at 1 μg/ml. In the lower panel (FIG. 4B), 20 μg of cell proteins were analyzed by Western blotting using anti-neu (C). The data shown in FIG. 4 are representative of three replicate experiments.
BT474 cells in serum-free medium were treated for 24 hrs with the control vehicle or with 1, 10, 20, and 40 μM TAPI (a gift from Immunex, Seattle, Wash.). In the top panel (FIG. 5A), the concentrated, conditioned media, normalized to the amount of cell extract, were analyzed by western blotting with anti-neu (N). […] In the lower panel (FIG. 5B), 20 μg of cell proteins were analyzed by Western blotting using anti-neu (C).
Tyrosine phosphorylation of tyrosine kinase receptors generally indicates their activation in signaling (Hynes et al., Biochem. Biophys. Acta 1198:165-184, 1994; and Dougall et al., Oncogene 9: 2109-2123, 1994). The tyrosine phosphorylation of p95HER-2, and its subcellular location were examined by fractionation of BT474 cell extracts into a soluble fraction and a particulate fraction. Each fraction was immunoprecipitated with anti-neu (C) and then subjected to Western blot analysis using monoclonal antibodies against phosphotyrosine. […]
To determine whether p95HER-2 and ECD were coordinately regulated, TPA (500 nM) and chloroquine (50 μM) or the control vehicle were added to the culture media of BT474 and SKOV3 cells. […] At 24 hrs, the ECD levels in the extracellular media and p95HER-2 levels in the cell extract were analyzed. […]

p185HER-2/neu = p185HER-2/neu level in treated cells, Western blot with anti-neu (C); type: cell-based, human; details: cells treated with TAPI
Experimental: BT474 cells in serum-free medium were treated for 24 hrs with the control vehicle or with 1, 10, 20, and 40 μM TAPI (a gift from Immunex, Seattle, Wash.). In the top panel (FIG. 5A), the concentrated, conditioned media, normalized to the amount of cell extract, were analyzed by western blotting with anti-neu (N). Similar results were obtained when 5 μg of protein from the conditioned media from each culture were analyzed.
This example illustrates that a metalloprotease inhibitor depressed levels of p95HER-2 and ECD from BT474 cells. Shedding of diverse transmembrane proteins is inhibited by hydroxamic acid-based compounds, which are potent metalloproteinase inhibitors (McGeehan et al., Nature 370:561, 1994; Mohler et al., Nature 370:218-220, 1994; and Arribas et al., J. Biol. Chem. 271:11376-11382, 1996). Therefore, effects of different concentrations of the hydroxamic acid, TAPI (Mohler et al., Nature 370:218-220, 1994) was tested on shedding of HER-2/neu ECD and on cell levels of p95. TAPI (0 to 40 μM) was added to cultured BT474 cells for 24 hrs, the ECD in concentrated conditioned media was analyzed by immunoblotting with anti-neu (N), and p95HER-2 and p185HER-2 polypeptides were examined in cell extracts using an anti-neu (C) monoclonal antibody. […] A residual amount of about 10% of the ECD resisted inhibition by even 40 μM TAPI.

p95HER-2 [2] = assay: Cell level of truncated p95HER-2, Western blot of cell extracts with anti-neu (C), BT474 cells; type: cell-based, human
Experimental: BT474 cells in serum-free medium were treated for 24 hrs with the control vehicle or with 1, 10, 20, and 40 μM TAPI (a gift from Immunex, Seattle, Wash.). In the top panel (FIG. 5A), the concentrated, conditioned media, normalized to the amount of cell extract, were analyzed by western blotting with anti-neu (N). […] In the lower panel (FIG. 5B), 20 μg of cell proteins were analyzed by Western blotting using anti-neu (C). […]
Therefore, effects of different concentrations of the hydroxamic acid, TAPI (Mohler et al., Nature 370:218-220, 1994) was tested on shedding of HER-2/neu ECD and on cell levels of p95.

[3] = 1 μM TAPI, three separate experiments
[4] = BT474 cells, 24 hrs, 1, 10, 20 and 40 μM TAPI

Substance: TAPI
- effect on p95HER-2 in a cell line (p95HER-2 [1]): increased
- inhibition of ECD level (HER-2/neu ECD; [3]): ≤ 50%
- effect on ECD level (HER-2/neu ECD; [4]): inhibited; also recorded: suppressed
- production of ECD at 1 μM TAPI (HER-2/neu ECD; BT474 cells, serum-free medium, 24 hrs, 1 μM): partially inhibited
- change in p185HER-2/neu levels (p185HER-2/neu): No change
- inhibition of p95HER-2 level (p95HER-2 [2]; [3]): ≤ 50%
- level of truncated p95HER-2 at 1 μM TAPI (p95HER-2 [2]; BT474 cells, 24 hrs, 1 μM): little or no effect
- effect on p95HER-2 level (p95HER-2 [2]; [4]): inhibited; also recorded: suppressed
